Data taken from patent US9139615B2, “High-affinity, dimeric inhibitors of PSD-95 as efficient neuroprotectants against ischemic brain damage and for treatment of pain” (University of Copenhagen, priority 2011, dated 2015).
“Also recorded” adds a separate entry of the source. Read-outs that look alike come from different tables or passages of the source.

Assays:
[1] = Spinal cord detection of fluorescent PSD-95 inhibitors; type: in vivo, mice; conditions: mouse, in vivo
Experimental: To investigate if AB143 and AB145 are able to enter spinal cord tissue, they were administered to the mice by intraperitoneal injection (30 mg/kg). The drug-treated mice were decapitated 30 min after injection, and the spinal cord was carefully dissected out, to which 5% trichloroacetic acid (TCA) (300 μL per 0.1 g tissue) was added and the tissue homogenized with an ultrasonic homogenizer (on ice). The homogenated tissue was vortexed and centrifuged for 10 min (20000 g at 4° C.). The supernatant was transferred to a test tube and evaporated, and the residue was reconstituted in water and its fluoresence intensity was determined by using a fluorescence plate reader (excitation/emission:470/525 nm). For quantification of the compounds, a standard curve was prepared by spiking a known amount of AB143 and AB145 into spinal cord tissue from control mice prior to homogenization, followed by work-up and analysis similar to the drug-treated mice.

PDZ1-2 of PSD-95 = target: T1, PDZ1-2 of PSD-95 (Homo sapiens, UniProt P78352); assay: Fluorescence polarization (FP) assay, affinity for PDZ1-2 of PSD-95; type: binding; conditions: for Ki: probe AB143 0.5 nM, PDZ1-2 […], IC50 converted to Ki
T1 construct: made in house; host or cells: E. coli BL21-DE3 pLysS
Excerpt: VI.i. Fluorescence Polarization (FP) Assay: as described below, Example 1 provides a convenient and reliable way to monitor and evaluate the inhibitor properties of a PSD-95 inhibitor of the invention. The FP assay allows a wide range of peptide analogues to be tested and compared with respect to their interaction with PDZ domains, and their specificity with respect to the tandem PDZ1-2 of PSD-95. PDZ1-2 is expressed using standard recombinant DNA technology known to those skilled in the art.
More specifically, the assay is based on a heterologous competition binding assay, where the affinity measured as IC50 of a given (non-fluorescent) peptide analogue for a PDZ domain is measured in the presence of a fixed concentration of a fluorescent labeled dimeric ligand (AB143; FIG. 4). Determined IC50 values are converted to Ki values (Nikolovska-Coleska et al, Anal. Biochem. 2004, 332, p. 261-273). The 5-FAM fluorophore may be attached to the dimeric ligand by coupling with HATU or HBTU.
The cDNA coding for PSD-95 PDZ1-2 tandem (corresponding to residues 61-249 in the human full-length PSD95α without exon 4b) were amplified by inverted PCR and cloned in a modified His-tagged pRSET vector (Invitrogen, Carlsbad, Calif., USA). The encoded PDZ1-2 peptide further comprised the sequence, […] (SEQ ID NO: 14), which was used as a tag for purification (His-tag), and the DNA coding sequences and encoded proteins are designated as follows: HIS-PDZ1-2 DNA [SEQ ID NO: 1] encoding HIS-PDZ1-2 protein [SEQ ID NO: 2]. Competent E. coli bacteria (BL21-DE3, pLysS) were transformed with PDZ1-2 expressing construct and grown overnight on agar plates containing ampicillin (100 μg/mL) and chloramphenicol (35 μg/mL) at 37° C. Colonies were picked and used to inoculate bacterial cultures (LB medium with 50 μg/mL ampicillin). These were shaken while being incubated at 37° C. until A600 of the culture reached 0.45, at which point 1 mM isopropyl β-D-1-thiogalactopyranoside was added. Induced cultures were incubated over night at 30° C. (PDZ1-2). Cells were harvested by spinning at 10,000 g for 10 min at 4° C. and re-suspended in lysis buffer (50 mM Tris/HCL pH 7.5, 1 mM PMSF, 25 μg/ml DNAse, 40 mM Mg2SO4). The cells were destroyed using a cell disruptor apparatus at 26 KPsi. The cell lysate was spun down at 35,000 g for 1 hour and the supernatant filtered with a 0.45 μm and a 0.22 μm filter. Purification of expressed PDZ1-2 peptide was performed with first a nickel (II)-charged column (HisTrap™ HP, GE Healthcare, UK) equilibrated with Tris-buffer (Tris/HCl buffer 50 mM, pH 7.5) followed by gel-filtration. For gel-filtration the PDZ1-2 sample was loaded on a Superdex™ 75 HR 10/30 column (GE Healthcare, UK) equilibrated with Tris buffer (20 mM Tris/HCL, pH 7.5) with a constant flow rate at 0.5 mL/min. The relevant fractions were analyzed on a SDS-PAGE gel stained by a standard silver staining protocol. The final purification was analyzed by electrospray ionization liquid chromatography-mass spectrometry (ESI-LC/MS) to get the exact molecular weight and thereby verify the identity of the PDZ1-2 domain. Molar extinction coefficients were found by amino acids analysis (Alphalyse, Odense, Denmark) and thereafter used for measuring protein concentrations. […]
An in vitro affinity measurement assay was developed based on the fluorescence polarization principle in order to provide affinity constants (Ki values) between synthesized ligands (e.g. dimeric inhibitors) and PDZ1-2 of PSD-95. […]

[2] = tested on: CFA-induced mechanical allodynia/hyperalgesia; assay: Complete Freund's adjuvant (CFA) inflammatory pain, von Frey test; type: in vivo, mice

T1 sequence (P78352 with tags, fused parts or gaps): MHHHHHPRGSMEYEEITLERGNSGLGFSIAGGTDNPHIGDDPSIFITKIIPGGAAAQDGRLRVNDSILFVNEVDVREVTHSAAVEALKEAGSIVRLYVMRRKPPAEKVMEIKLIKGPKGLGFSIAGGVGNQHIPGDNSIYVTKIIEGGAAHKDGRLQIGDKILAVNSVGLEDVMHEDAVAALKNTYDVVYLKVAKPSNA

Structure (SMILES): CC[C@H](C)[C@H](NC(=O)CCOCCOCCOCCOCCOCCOCCOCCC(=O)N[C@H](C(=O)N[C@@H](CCC(=O)O)C(=O)N[C@@H](CO)C(=O)N[C@@H](CC(=O)O)C(=O)N[C@H](C(=O)O)C(C)C)[C@@H](C)CC)C(=O)N[C@@H](CCC(=O)O)C(=O)N[C@@H](CO)C(=O)N[C@@H](CC(=O)O)C(=O)N[C@H](C(=O)O)C(C)C [AB122, PEG6(IESDV)2]
- ability to enter spinal cord tissue (concluded from fluorescent surrogates) [1]: able to reach their target, PSD-95, in the spinal cord

Structure (SMILES): CC[C@H](C)[C@H](NC(=O)CCOCCOCCOCCOCCOCCC(=O)N[C@H](C(=O)N[C@@H](CCC(=O)O)C(=O)N[C@@H](CO)C(=O)N[C@@H](CC(=O)O)C(=O)N[C@H](C(=O)O)C(C)C)[C@@H](C)CC)C(=O)N[C@@H](CCC(=O)O)C(=O)N[C@@H](CO)C(=O)N[C@@H](CC(=O)O)C(=O)N[C@H](C(=O)O)C(C)C [AB123, PEG4(IESDV)2]
- ability to enter spinal cord tissue (concluded from fluorescent surrogates) [1]: able to reach their target, PSD-95, in the spinal cord

Structure (SMILES): CC[C@H](C)[C@H](NC(=O)CCOCCOCCOCCOCCOCCC(=O)N[C@H](C(=O)N[C@@H](CCC(=O)O)C(=O)N[C@H](C(=O)N[C@@H](C)C(=O)N[C@H](C(=O)O)C(C)C)[C@@H](C)O)[C@@H](C)CC)C(=O)N[C@@H](CCC(=O)O)C(=O)N[C@H](C(=O)N[C@@H](C)C(=O)N[C@H](C(=O)O)C(C)C)[C@@H](C)O [AB125, PEG4(IETAV)2]
- Ki (PDZ1-2 of PSD-95; heterologous competition, TBS pH 7.4, read-out: Ki ± SEM, affinity towards PDZ1-2 of PSD-95): ~9.5 nM
- CFA-induced hyperalgesia ([2]; 1, 3 and 10 mg/kg given 24 hours after CFA-injection, at 72 hours): significantly reversed
- CFA-induced pain response (paw withdrawal threshold) ([2]; 3, 10 and 30 mg/kg i.p. simultaneously with CFA, 24 hours afterwards): reduces CFA-induced pain response; also recorded: differed significantly from saline-treated mice
- CFA-induced hyperalgesia ([2]; 3 and 10 mg/kg given 24 hours after CFA-injection, after 1 hour): significant reversal of the CFA-induced hyperalgesia
- CFA-induced hyperalgesia ([2]; 3 and 10 mg/kg given 24 hours after CFA-injection, after 24 hours): significant reversal was still observed
- CFA-induced hyperalgesia ([2]; 3 and 10 mg/kg, given simultaneously with CFA, after 1 hour): significantly reversed the CFA-induced hyperalgesia
- CFA-induced hyperalgesia ([2]; 3 and 10 mg/kg, given simultaneously with CFA, after 24 hours): significant reversal was still observed
- duration of reversal of CFA-induced hyperalgesia ([2]; administered 24 hours after CFA treatment): at least 3 days
- CFA-induced mechanical hyperalgesia ([2]; administered concurrently with CFA, 1 hour and 24 hours after treatment): prevented the development of CFA-induced mechanical hyperalgesia

Structure (SMILES): CC[C@H](C)[C@H](NC(=O)CCOCCOCCNCCOCCOCCC(=O)N[C@H](C(=O)N[C@@H](CCC(=O)O)C(=O)N[C@H](C(=O)N[C@@H](C)C(=O)N[C@H](C(=O)O)C(C)C)[C@@H](C)O)[C@@H](C)CC)C(=O)N[C@@H](CCC(=O)O)C(=O)N[C@H](C(=O)N[C@@H](C)C(=O)N[C@H](C(=O)O)C(C)C)[C@@H](C)O [AB141, NPEG4(IETAV)2]
- ability to enter spinal cord tissue (concluded from fluorescent surrogates) [1]: able to reach their target, PSD-95, in the spinal cord

Structure (SMILES): CC[C@H](C)[C@H](NC(=O)CCOCCOCCN(CCOCCOCCC(=O)N[C@H](C(=O)N[C@@H](CCC(=O)O)C(=O)N[C@H](C(=O)N[C@@H](C)C(=O)N[C@H](C(=O)O)C(C)C)[C@@H](C)O)[C@@H](C)CC)C(=O)c1ccc2c(c1)C(=O)OC21c2ccc(O)cc2Oc2cc(O)ccc21)C(=O)N[C@@H](CCC(=O)O)C(=O)N[C@H](C(=O)N[C@@H](C)C(=O)N[C@H](C(=O)O)C(C)C)[C@@H](C)O [AB143, F-NPEG4(IETAV)2]
- Kd (PDZ1-2 of PSD-95; saturation binding, probe 0.5 nM, TBS pH 7.4, read-out: Kd towards PDZ1-2 of PSD-95): 7.8 ± 0.11 nM
- fluorescence in spinal cord tissue compared to saline-treated mice [1]: clear and distinct fluorescence increase

Structure (SMILES): CC(C)[C@H](NC(=O)[C@H](CC(=O)O)NC(=O)[C@@H](NC(=O)[C@H](CCC(=O)O)NC(=O)[C@H](CCCCNC(=O)[C@H](CCCNC(=N)N)NC(=O)[C@H](CCCNC(=N)N)NC(=O)[C@H](CCCNC(=N)N)NC(=O)[C@H](CCC(N)=O)NC(=O)[C@H](CCCNC(=N)N)NC(=O)[C@H](CCCNC(=N)N)NC(=O)[C@H](CCCCN)NC(=O)[C@H](CCCCN)NC(=O)[C@H](CCCNC(=N)N)NC(=O)CNC(=O)[C@@H](N)Cc1ccc(O)cc1)NC(=O)CCOCCOCCOCCOCCOCCC(=O)N[C@@H](CCCCNC(=O)[C@H](CCCNC(=N)N)NC(=O)[C@H](CCCNC(=N)N)NC(=O)[C@H](CCCNC(=N)N)NC(=O)[C@H](CCC(N)=O)NC(=O)[C@H](CCCNC(=N)N)NC(=O)[C@H](CCCNC(=N)N)NC(=O)[C@H](CCCCN)NC(=O)[C@H](CCCCN)NC(=O)[C@H](CCCNC(=N)N)NC(=O)CNC(=O)[C@@H](N)Cc1ccc(O)cc1)C(=O)N[C@@H](CCC(=O)O)C(=O)N[C@H](C(=O)N[C@@H](CC(=O)O)C(=O)N[C@H](C(=O)O)C(C)C)[C@@H](C)O)[C@@H](C)O)C(=O)O [AB144_H]
- Ki (PDZ1-2 of PSD-95; Ki ± SEM, affinity towards PDZ1-2 of PSD-95, heterologous competition, TBS pH 7.4): 24 ± 2 nM
- fold lower affinity than AB144 (PDZ1-2 of PSD-95; PDZ1-2 of PSD-95, from Ki): ~5 fold
